Counter-ions that a name gives are not always drawn.
Columns and labels:
[1] = Plasma concentrations of d6-DM, d3-DX, d3-3-MM and Q (Example 1); conditions: 2 to 3 hours after morning dose
Procedure: Plasma samples were separated by centrifugation and then frozen at −20° C. until assayed at the analytical unit.

[2] = PK parameters (Cmax, AUC) estimated from measured drug concentrations with a PK model (Example 1); type: in vivo, human
[3] = tested on: negative symptoms of schizophrenia; conditions: Lee et al. 2015, cited from earlier work
[4] = d6-DM/Q/d6-DM/Q group at Visit 4 (Week 6)
[5] = d6-DM/Q/d6-DM/Q group at Visit 7 (Week 12)
[6] = placebo/d6-DM/Q group at Visit 7 (Week 12)
[7] = Visit 4 (Week 6), d6-DM/Q/d6-DM/Q, All metabolizer types
[8] = Visit 4 (Week 6), d6-DM/Q/d6-DM/Q, Extensive metabolizer subgroup
[9] = Visit 4 (Week 6), d6-DM/Q/d6-DM/Q, Intermediate metabolizer subgroup
[10] = Visit 4 (Week 6), d6-DM/Q/d6-DM/Q, Poor metabolizer subgroup
[11] = Visit 4 (Week 6), d6-DM/Q/d6-DM/Q, Ultra-Rapid metabolizer subgroup
[12] = Visit 7 (Week 12), d6-DM/Q/d6-DM/Q, All metabolizer types
[13] = Visit 7 (Week 12), d6-DM/Q/d6-DM/Q, Extensive metabolizer subgroup
[14] = Visit 7 (Week 12), d6-DM/Q/d6-DM/Q, Intermediate metabolizer subgroup
[15] = Visit 7 (Week 12), d6-DM/Q/d6-DM/Q, Ultra-Rapid metabolizer subgroup
[16] = Visit 7 (Week 12), placebo/d6-DM/Q, All metabolizer types
[17] = Visit 7 (Week 12), placebo/d6-DM/Q, Extensive metabolizer subgroup
[18] = Visit 7 (Week 12), placebo/d6-DM/Q, Intermediate metabolizer subgroup
[19] = Visit 7 (Week 12), placebo/d6-DM/Q, Poor metabolizer subgroup
[20] = subgroup of 13 patients with ALDH2*2 allele

[2H]C([2H])([2H])Oc1ccc2c(c1)C13CCCCC1C(C2)NCC3 (centres unmarked) [d3-3-MM]
mean plasma concentration, all patients [1, 4]: 20.5 ng/mL | mean plasma concentration, all patients [1, 5]: 19.4 ng/mL | mean plasma concentration, all patients [1, 6]: 23.4 ng/mL

[2H]C([2H])([2H])N1CCC23CCCCC2C1Cc1ccc(O)cc13 (centres unmarked) [d3-DX, deuterated (d3)-dextrorphan]
mean plasma concentration, all patients [1, 4]: 101.2 ng/mL | mean plasma concentration, all patients [1, 5]: 111.6 ng/mL | mean plasma concentration, all patients [1, 6]: 124.5 ng/mL | AUC, mean (SD) [2, 7]: 1142.3 (378.08) h × ng/mL | AUC, median (min, max) [2, 7]: 1083.8 (506, 2091) h × ng/mL | Cmax, mean (SD) [2, 7]: 127.4 (50.25) ng/mL | Cmax, median (min, max) [2, 7]: 121.6 (56, 332) ng/mL | AUC, mean (SD) [2, 8]: 1235.3 (389.01) h × ng/mL | AUC, median (min, max) [2, 8]: 1119.6 (729, 2091) h × ng/mL | Cmax, mean (SD) [2, 8]: 144.6 (56.42) ng/mL | Cmax, median (min, max) [2, 8]: 134.9 (72, 332) ng/mL | AUC, mean (SD) [2, 9]: 1044.8 (340.96) h × ng/mL | AUC, median (min, max) [2, 9]: 991.6 (506, 1847) h × ng/mL | Cmax, mean (SD) [2, 9]: 111.5 (38.83) ng/mL | Cmax, median (min, max) [2, 9]: 101.2 (56, 195) ng/mL | AUC, mean (SD) [2, 10]: 887.2 (na) h × ng/mL | AUC, median (min, max) [2, 10]: 887.2 (887, 887) h × ng/mL | Cmax, mean (SD) [2, 10]: 87.2 (na) ng/mL | Cmax, median (min, max) [2, 10]: 87.2 (87, 87) ng/mL | AUC, mean (SD) [2, 11]: 1774.7 (na) h × ng/mL | AUC, median (min, max) [2, 11]: 1774.7 (1775, 1775) h × ng/mL | Cmax, mean (SD) [2, 11]: 193.1 (na) ng/mL | Cmax, median (min, max) [2, 11]: 193.1 (193, 193) ng/mL | AUC, mean (SD) [2, 12]: 1142.8 (378.46) h × ng/mL | AUC, median (min, max) [2, 12]: 1087.1 (511, 2115) h × ng/mL | Cmax, mean (SD) [2, 12]: 126.8 (50.32) ng/mL | Cmax, median (min, max) [2, 12]: 123.0 (57, 337) ng/mL | AUC, mean (SD) [2, 13]: 1243.6 (394.70) h × ng/mL | AUC, median (min, max) [2, 13]: 1123.4 (740, 2115) h × ng/mL | Cmax, mean (SD) [2, 13]: 144.9 (56.98) ng/mL | Cmax, median (min, max) [2, 13]: 133.9 (76, 337) ng/mL | AUC, mean (SD) [2, 14]: 1015.0 (312.22) h × ng/mL | AUC, median (min, max) [2, 14]: 1000.2 (511, 1833) h × ng/mL | Cmax, mean (SD) [2, 14]: 106.3 (33.76) ng/mL | Cmax, median (min, max) [2, 14]: 100.6 (57, 187) ng/mL | AUC, mean (SD) [2, 15]: 1783.3 (na) h × ng/mL | AUC, median (min, max) [2, 15]: 1783.3 (1783, 1783) h × ng/mL | Cmax, mean (SD) [2, 15]: 190.3 (na) ng/mL | Cmax, median (min, max) [2, 15]: 190.3 (190, 190) ng/mL | AUC, mean (SD) [2, 16]: 1181.4 (515.68) h × ng/mL | AUC, median (min, max) [2, 16]: 1085.8 (651, 3622) h × ng/mL | Cmax, mean (SD) [2, 16]: 126.6 (49.10) ng/mL | Cmax, median (min, max) [2, 16]: 116.4 (65, 318) ng/mL | AUC, mean (SD) [2, 17]: 1323.8 (623.07) h × ng/mL | AUC, median (min, max) [2, 17]: 1131.7 (750, 3622) h × ng/mL | Cmax, mean (SD) [2, 17]: 142.5 (56.08) ng/mL | Cmax, median (min, max) [2, 17]: 130.9 (80, 318) ng/mL | AUC, mean (SD) [2, 18]: 1014.1 (202.39) h × ng/mL | AUC, median (min, max) [2, 18]: 940.4 (745, 1367) h × ng/mL | Cmax, mean (SD) [2, 18]: 108.0 (24.89) ng/mL | Cmax, median (min, max) [2, 18]: 105.2 (76, 168) ng/mL | AUC, mean (SD) [2, 19]: 651.2 (na) h × ng/mL | AUC, median (min, max) [2, 19]: 651.2 (651, 651) h × ng/mL | Cmax, mean (SD) [2, 19]: 65.1 (na) ng/mL | Cmax, median (min, max) [2, 19]: 65.1 (65, 65) ng/mL

[2H]C([2H])([2H])Oc1ccc2c(c1)[C@]13CCCC[C@@H]1[C@H](C2)N(C([2H])([2H])[2H])CC3 [d6-DM, deuterated [d6]-dextromethorphan hydrobromide]
mean plasma concentration, all patients [1, 4]: 49.7 ng/mL | mean plasma concentration, all patients [1, 5]: 53.2 ng/mL | mean plasma concentration, all patients [1, 6]: 54.0 ng/mL | AUC, mean (SD) [2, 7]: 456.2 (362.05) h × ng/mL | AUC, median (min, max) [2, 7]: 355.4 (73, 1793) h × ng/mL | Cmax, mean (SD) [2, 7]: 51.6 (38.53) ng/mL | Cmax, median (min, max) [2, 7]: 40.0 (8, 192) ng/mL | AUC, mean (SD) [2, 8]: 333.3 (255.24) h × ng/mL | AUC, median (min, max) [2, 8]: 271.9 (73, 1183) h × ng/mL | Cmax, mean (SD) [2, 8]: 38.2 (27.99) ng/mL | Cmax, median (min, max) [2, 8]: 32.2 (8, 130) ng/mL | AUC, mean (SD) [2, 9]: 573.2 (418.66) h × ng/mL | AUC, median (min, max) [2, 9]: 401.7 (139, 1793) h × ng/mL | Cmax, mean (SD) [2, 9]: 63.9 (44.15) ng/mL | Cmax, median (min, max) [2, 9]: 48.1 (17, 192) ng/mL | AUC, mean (SD) [2, 10]: 204.6 (na) h × ng/mL | AUC, median (min, max) [2, 10]: 204.6 (205, 205) h × ng/mL | Cmax, mean (SD) [2, 10]: 28.7 (na) ng/mL | Cmax, median (min, max) [2, 10]: 28.7 (29, 29) ng/mL | AUC, mean (SD) [2, 11]: 468.0 (na) h × ng/mL | AUC, median (min, max) [2, 11]: 468.0 (468, 468) h × ng/mL | Cmax, mean (SD) [2, 11]: 58.6 (na) ng/mL | Cmax, median (min, max) [2, 11]: 58.6 (59, 59) ng/mL | AUC, mean (SD) [2, 12]: 473.4 (375.01) h × ng/mL | AUC, median (min, max) [2, 12]: 369.4 (70, 1810) h × ng/mL | Cmax, mean (SD) [2, 12]: 53.4 (40.09) ng/mL | Cmax, median (min, max) [2, 12]: 42.3 (8, 194) ng/mL | AUC, mean (SD) [2, 13]: 336.7 (244.01) h × ng/mL | AUC, median (min, max) [2, 13]: 288.9 (70, 1127) h × ng/mL | Cmax, mean (SD) [2, 13]: 38.7 (26.74) ng/mL | Cmax, median (min, max) [2, 13]: 34.1 (8, 124) ng/mL | AUC, mean (SD) [2, 14]: 601.9 (442.90) h × ng/mL | AUC, median (min, max) [2, 14]: 375.7 (132, 1810) h × ng/mL | Cmax, mean (SD) [2, 14]: 67.0 (46.98) ng/mL | Cmax, median (min, max) [2, 14]: 45.9 (16, 194) ng/mL | AUC, mean (SD) [2, 15]: 498.8 (na) h × ng/mL | AUC, median (min, max) [2, 15]: 498.8 (499, 499) h × ng/mL | Cmax, mean (SD) [2, 15]: 62.1 (na) ng/mL | Cmax, median (min, max) [2, 15]: 62.1 (62, 62) ng/mL | AUC, mean (SD) [2, 16]: 439.6 (248.41) h × ng/mL | AUC, median (min, max) [2, 16]: 413.0 (53, 1081) h × ng/mL | Cmax, mean (SD) [2, 16]: 50.8 (27.44) ng/mL | Cmax, median (min, max) [2, 16]: 47.7 (7, 121) ng/mL | AUC, mean (SD) [2, 17]: 404.3 (239.02) h × ng/mL | AUC, median (min, max) [2, 17]: 368.0 (53, 1081) h × ng/mL | Cmax, mean (SD) [2, 17]: 47.2 (26.57) ng/mL | Cmax, median (min, max) [2, 17]: 44.2 (7, 121) ng/mL | AUC, mean (SD) [2, 18]: 492.1 (271.83) h × ng/mL | AUC, median (min, max) [2, 18]: 492.9 (124, 945) h × ng/mL | Cmax, mean (SD) [2, 18]: 56.2 (29.94) ng/mL | Cmax, median (min, max) [2, 18]: 56.1 (15, 106) ng/mL | AUC, mean (SD) [2, 19]: 427.4 (na) h × ng/mL | AUC, median (min, max) [2, 19]: 427.4 (427, 427) h × ng/mL | Cmax, mean (SD) [2, 19]: 47.9 (na) ng/mL | Cmax, median (min, max) [2, 19]: 47.9 (48, 48) ng/mL

COc1ccc2c(c1)[C@@]13CCCC[C@H]1[C@@H](C2)N(C)CC3 [dextromethorphan, (+)-3-methoxy-N-methylmorphinan]
PANSS and SANS scores, risperidone and dextromethorphan vs. risperidone and placebo (in words) ([3]; add-on to risperidone): No significant differences | PANSS scores including PANSS negative symptom subscale, dextromethorphan vs. placebo (in words) [3, 20]: No significant difference | total SANS scores, dextromethorphan vs. placebo (in words) [3, 20]: significant difference

From patent publication US20220071989A1, “METHODS OF TREATING NEGATIVE SYMPTOMS OF SCHIZOPHRENIA USING DEUTERATED DEXTROMETHORPHAN AND QUINIDINE” (AVANIR PHARMACEUTICALS, INC., priority 2019, published 2022)
